# Data from patent publication US10633348B2, “Methods to treat lymphoplasmacytic lymphoma” (Dana-Farber Cancer Institute, Inc., priority 2013, dated 2020).
# Read-outs that look alike come from different tables or passages of the source.
# Key:
# Type in all cases: cell-based
# PCTAIRE1 = test system: PCTAIRE1
# MLK4 = test system: MLK4
# PIP5K3 = test system: PIP5K3
# MAP2K6 = test system: MAP2K6
# eEF2K = test system: eEF2K
# JAK1 domain2 = test system: JAK1 domain2
# TLK2 = test system: TLK2
# SNRK = test system: SNRK
# MAP3K2, MAP3K3 = experiment: KiNativ kinase profiling in A375 cells; details: Lys2, SEQ ID NO 87, 1.0 μM
# PIK3C2B = test system: PIK3C2B
# PFTAIRE1 = test system: PFTAIRE1
# KHS1 = test system: KHS1
# ERK2 = test system: ERK2
# RSK2 domain1 = test system: RSK2 domain1
# RSK3 domain1 = test system: RSK3 domain1
# MAP3K5 = test system: MAP3K5
# GCK = test system: GCK
# MST3 = test system: MST3
# IRAKI = test system: IRAKI
# CDK2 = test system: CDK2
# NEK1 = test system: NEK1
# BTK = test system: BTK
# CDK5 = test system: CDK5
# FRK = test system: FRK
# CAMK2G = test system: CAMK2G
# MLK3 = test system: MLK3
# MST4, YSK1 = experiment: KiNativ kinase profiling in A375 cells; details: Lys2, SEQ ID NO 114, 1.0 μM
# CDK4 = test system: CDK4
# CaMK1a = test system: CaMK1a
# CASK = test system: CASK
# MER, TYRO3 = experiment: KiNativ kinase profiling in A375 cells; details: Activation Loop, SEQ ID NO 102, 1.0 μM
# BARK1 = test system: BARK1
# IKKa = test system: IKKa
# CDK7 = test system: CDK7
# CHK2 = test system: CHK2
# PI4KB = test system: PI4KB
# FRAP = test system: FRAP
# PKN1 = test system: PKN1
# NDR1 = test system: NDR1
# CLK3 = test system: CLK3
# p70S6Kb = test system: p70S6Kb
# TYK2 domain2 = test system: TYK2 domain2
# PIK3C3 = test system: PIK3C3
# [1] = test system: 260 kinases in A375 cells; details: 1.0 μM
structure (smiles),measurement,setting,value
"CCN1CCN(Cc2ccc(NC(=O)c3ccc(C)c(Oc4cc(N)ncn4)c3)cc2C(F)(F)F)CC1 [(A-4), 3-((6-aminopyrimidin-4-yl)oxy)-N-(4-((4-ethylpiperazin-1-yl)methyl)-3-(trifluoromethyl)phenyl)-4-methylbenzamide]",inhibition of kinase labeling,PCTAIRE1,−3.5%
same,inhibition of kinase labeling,MLK4,−1.7%
same,inhibition of kinase labeling,PIP5K3,0.9%
same,inhibition of kinase labeling,MAP2K6,0.5%
same,inhibition of kinase labeling,eEF2K,−30.5%
same,inhibition of kinase labeling,JAK1 domain2,−6.2%
same,inhibition of kinase labeling,TLK2,7.1%
same,inhibition of kinase labeling,SNRK,18.0%
same,inhibition of kinase labeling,"MAP3K2, MAP3K3",3.2%
same,inhibition of kinase labeling,PIK3C2B,24.0%
same,inhibition of kinase labeling,PFTAIRE1,4.3%
same,inhibition of kinase labeling,KHS1,15.8%
same,inhibition of kinase labeling,ERK2,−3.8%
same,inhibition of kinase labeling,RSK2 domain1,−3.3%
same,inhibition of kinase labeling,RSK3 domain1,−32.6%
same,inhibition of kinase labeling,MAP3K5,−30.4%
same,inhibition of kinase labeling,GCK,94.9%
same,inhibition of kinase labeling,MST3,−3.7%
same,inhibition of kinase labeling,IRAKI,−3.5%
same,inhibition of kinase labeling,CDK2,−3.5%
same,inhibition of kinase labeling,NEK1,−3.0%
same,inhibition of kinase labeling,BTK,−18.8%
same,inhibition of kinase labeling,CDK5,−27.3%
same,inhibition of kinase labeling,FRK,91.1%
same,inhibition of kinase labeling,CAMK2G,−23.1%
same,inhibition of kinase labeling,MLK3,20.7%
same,inhibition of kinase labeling,"MST4, YSK1",4.6%
same,inhibition of kinase labeling,CDK4,17.4%
same,inhibition of kinase labeling,CaMK1a,12.4%
same,inhibition of kinase labeling,CASK,−28.1%
same,inhibition of kinase labeling,"MER, TYRO3",1.6%
same,inhibition of kinase labeling,BARK1,−13.4%
same,inhibition of kinase labeling,IKKa,−17.0%
same,inhibition of kinase labeling,CDK7,3.9%
same,inhibition of kinase labeling,CHK2,−7.8%
same,inhibition of kinase labeling,PI4KB,−0.2%
same,inhibition of kinase labeling,FRAP,−7.5%
same,inhibition of kinase labeling,PKN1,−32.1%
same,inhibition of kinase labeling,NDR1,9.3%
same,inhibition of kinase labeling,CLK3,−52.8%
same,inhibition of kinase labeling,p70S6Kb,8.2%
same,inhibition of kinase labeling,TYK2 domain2,−18.1%
same,inhibition of kinase labeling,PIK3C3,−5.1%
"CCN1CCN(Cc2ccc(NC(=O)c3ccc(C)c(Oc4ccnc(Nc5cnn(C)c5)n4)c3)cc2C(F)(F)F)CC1 [(A-14), N-(4-((4-ethylpiperazin-1-yl)methyl)-3-(trifluoromethyl)phenyl)-4-methyl-3-((2-((1-methyl-1H-pyrazol-4-yl)amino)pyrimidin-4-yl)oxy)benzamide]",KiNativ inhibition,"[1]; AKT2, AKT3, ATP Loop, SEQ ID NO 204",−19.7%
same,KiNativ inhibition,"[1]; AMPKa1, AMPKa2, Lys2, SEQ ID NO 205",−17.5%
same,KiNativ inhibition,"[1]; AurA, AurB, AurC, ATP Loop, SEQ ID NO 211",−2.4%
same,KiNativ inhibition,"[1]; CDK11, CDK8, Lys2, SEQ ID NO 224",49.2%
same,KiNativ inhibition,"[1]; CK1g1, CK1g2, CK1g3, ATP Loop, SEQ ID NO 235",1.3%
same,KiNativ inhibition,"[1]; CK1d, CK1e, Lys2, SEQ ID NO 234",−9.3%
same,KiNativ inhibition,"[1]; JNK1, JNK2, JNK3, Lys2, SEQ ID NO 276",31.5%
same,KiNativ inhibition,"[1]; KSR1, KSR2, Activation Loop, SEQ ID NO 280",1.4%
same,KiNativ inhibition,"[1]; MAP2K1, MAP2K2, Lys1, SEQ ID NO 289",9.4%
same,KiNativ inhibition,"[1]; MAP2K1, MAP2K2, Lys2, SEQ ID NO 290",2.2%
same,KiNativ inhibition,"[1]; MAP3K2, MAP3K3, Lys2, SEQ ID NO 299",8.4%
same,KiNativ inhibition,"[1]; MARK2, MARK3, Lys2, SEQ ID NO 304",−15.6%
same,KiNativ inhibition,"[1]; MARK3, MARK4, Lys1, SEQ ID NO 306",−7.5%
same,KiNativ inhibition,"[1]; MAST1, MAST2, Lys2, SEQ ID NO 308",−24.8%
same,KiNativ inhibition,"[1]; MER, TYRO3, Activation Loop, SEQ ID NO 313",21.2%
same,KiNativ inhibition,"[1]; MST4, YSK1, Lys2, SEQ ID NO 325",−2.4%
same,KiNativ inhibition,"[1]; MYO3A, MYO3B, Lys2, SEQ ID NO 326",22.9%
same,KiNativ inhibition,"[1]; NEK6, NEK7, Lys2, SEQ ID NO 333",−1.8%
same,KiNativ inhibition,"[1]; PCTAIRE2, PCTAIRE3, Lys1, SEQ ID NO 346",72.9%
same,KiNativ inhibition,"[1]; PI4KA, PI4KAP2, ATP, SEQ ID NO 353",2.1%
same,KiNativ inhibition,"[1]; PKCa, PKCb, Lys2, SEQ ID NO 364",−86.4%
same,KiNativ inhibition,"[1]; ROCK1, ROCK2, Lys2, SEQ ID NO 377",−0.2%
same,KiNativ inhibition,"[1]; RSK1 domain1, RSK2 domain1, RSK3 domain1, Lys2, SEQ ID NO 379",−25.1%
same,KiNativ inhibition,"[1]; SRPK1, SRPK2, Lys1, SEQ ID NO 391",−38.7%
same,KiNativ inhibition,"[1]; TAO1, TAO3, Lys2, SEQ ID NO 396",87.1%
same,KiNativ inhibition,"[1]; Wnk1, Wnk2, Wnk3, Lys2, SEQ ID NO 406",−1.1%
same,KiNativ inhibition,"[1]; Wnk1, Wnk2, ATP Loop, SEQ ID NO 405",11.2%
same,KiNativ inhibition,"[1]; ZC1/HGK, ZC2/TNIK, ZC3/MINK, Lys2, SEQ ID NO 410",57.5%
same,KiNativ inhibition,"[1]; p38d, p38g, Lys2, SEQ ID NO 341",51.5%
